# Measurements reported in patent US20040038862A1, “Identification of new therapeutic targets for modulating bile acid synthesis” (priority 2003, published 2004).
# Entries after “also recorded” stand apart in the source; their conditions may differ.
# Tests used:
# SHP-1 expression [1] = experiment: SHP-1 expression in primary human hepatocytes (Northern blot); format: cell-based; details: 48 hours; GW4064 0.1-10 μM, chenodeoxycholic acid 1-100 μM
# Method: (§1) Control cultures received vehicle alone. Cells were cultured for a further 48 hours prior to harvest and total RNA isolated using a commercially available reagent (Trizol, Life Technologies Inc., Gaithersburg, Md.) according to the manufacturer's instructions. Total RNA (10 μg) was resolved on a 1% agarose/2.2 M formaldehyde denaturing gel and transferred to a nylon membrane (Hybond N+, Amersham Pharmacia Biotech Inc., Piscataway, N.J.). Blots were hybridized with ^32p-labeled cDNAs corresponding to human SHP-1, human CYP7A (bases 99 to 1564, GenBank M93133), mouse SHP-1 (bases 30 to 783, GenBank L76567), or rat CYP7A (bases 235 to 460, GenBank J05460). The SHP-1 cDNA used in these experiments encodes the full-length human SHP-1 protein (amino acids 1-260) as described in Seol et al. (1996 Science 272:1336), Subsequently, blots were stripped and reprobed with a radiolabeled -actin cDNA (Clontech, Palo Alto, Calif.).
# CYP7A expression [2] = experiment: CYP7A expression in primary human hepatocytes (Northern blot); format: cell-based; details: 48 hours; GW4064 0.1-10 μM, chenodeoxycholic acid 1-100 μM
# Method: as §1, with “Primary human hepatocytes and rat hepatocytes (1.5×10^6 cells) were cultured on […]-coated six well plates in serum-free Williams' E medium supplemented with 100 nM dexamethasone, 100 U/ml penicillin G, 100 μg/ml streptomycin, and insulin-transferrin-selenium (ITS-G, Life Technologies, Inc., Gaithersburg, Md.). […] Control” for “Control”
# rat SHP-1 promoter = experiment: SHP-1 promoter reporter in HepG2 cells transfected with FXR expression plasmid; format: cell-based
# human SHP-1 promoter = experiment: as above; format: cell-based
# SHP-1 expression [3] = experiment: Liver SHP-1 expression in treated rats; format: in vivo, rat; details: 30 mg/kg by gavage twice a day for 7 days
# Method: Direct regulation of SHP-1 by FXR was confirmed in experiments in HepG2 cells transfected with an FXR expression plasmid and reporter plasmids under the control of either the rat or human SHP-1 promoter.
# (§2) Male Fisher rats were obtained from Charles River Laboratories Inc. (Raleigh, N.C.) and maintained on a 12 hour light/12 hour dark cycle. Animals were allowed food and chow ad libitum. […] Livers were excised and snap-frozen in liquid nitrogen. Differential gene expression analysis was performed by Curagen Corp. (New Haven, Conn.).
# CYP7A expression [4] = experiment: Liver CYP7A expression in treated rats; format: in vivo, rat; details: 30 mg/kg by gavage twice a day for 7 days
# Method: This decrease was still measurable despite the fact that the animals had been maintained on a normal light cycle and sacrificed during the daytime when CYP7A levels are known to be quite low.
# as §2
# SHP-1 expression [5] = experiment: SHP-1 expression in primary rat hepatocytes (Northern blot); format: cell-based; details: 48 hours; GW4064 0.1-10 μM
# Method: as §1, with “Primary human hepatocytes and rat hepatocytes (1.5×10^6 cells) were cultured on […]-coated six well plates in serum-free Williams' E medium supplemented with 100 nM dexamethasone, 100 U/ml penicillin G, 100 μg/ml streptomycin, and insulin-transferrin-selenium (ITS-G, Life Technologies, Inc., Gaithersburg, Md.). […] Control” for “Control”
# rodent FXR = biological target: T1, rodent FXR (Mus musculus, UniProt Q60641); experiment: FXR transactivation in transfected CV-1 cells, hsp70 ecdysone receptor response element reporter; format: cell-based
# T1 construct: expressed in transfected cells; host or cells: CV-1
# T1 sequence (Q60641 1-488): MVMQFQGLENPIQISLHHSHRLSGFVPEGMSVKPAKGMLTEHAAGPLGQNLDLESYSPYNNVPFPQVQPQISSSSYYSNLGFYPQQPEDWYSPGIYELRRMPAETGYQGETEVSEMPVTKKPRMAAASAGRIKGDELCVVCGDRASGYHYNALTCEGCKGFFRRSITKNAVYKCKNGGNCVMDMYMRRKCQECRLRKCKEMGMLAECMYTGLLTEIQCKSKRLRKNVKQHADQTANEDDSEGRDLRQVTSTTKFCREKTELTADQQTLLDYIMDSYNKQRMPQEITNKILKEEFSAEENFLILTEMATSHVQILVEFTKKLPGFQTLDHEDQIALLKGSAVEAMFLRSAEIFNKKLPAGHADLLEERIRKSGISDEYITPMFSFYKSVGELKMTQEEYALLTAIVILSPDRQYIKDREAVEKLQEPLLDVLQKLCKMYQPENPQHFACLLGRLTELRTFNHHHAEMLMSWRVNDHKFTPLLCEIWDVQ
# Description: The full-length coding regions for human LRH-1 (GenBank AB019246) and human SHP-1 (GenBank L76571) were amplified by PCR and cloned into pSG5, creating pSG5-hLRH-1 and pSG5-hSHP-1, respectively. A consensus Kozak sequence was created during amplification. […] Underlined residues are those which have been mutated from the wild-type sequence. […] VP16-nuclear receptor chimeras contained the 80-amino acid herpes virus VP16 transactivation domain linked to the nuclear receptor ligand binding domain in a modified pSG5 expression vector.
# Transient transfection of CV-1 cells was performed as described previously (Jones, S. A. et al. 2000. Mol. Endocrinol. 14:27-39). Typically, transfection mixes contained 2-5 ng receptor expression vector, 20 ng reporter construct, and 8 ng p -actin-SPAP. The amount of DNA used in each transfection was adjusted to 80 ng with carrier plasmid (pBluescript, Stratagene, La Jolla, Calif.). Cells were maintained for 24 hours in the presence of drug (added as a 1000× stock in dimethyl sulfoxide) in DMEM/F-12 nutrient mixture containing 10% charcoal-stripped, delipidated calf serum. An aliquot of medium was assayed for SPAP activity and the cells lysed prior to determination of luciferase expression. Luciferase activities were normalized to SPAP. […]
SMILES,SHP-1 expression in human hepatocytes (SHP-1 expression [1]),CYP7A expression in human hepatocytes (CYP7A expression [2]),"reporter activity, rat SHP-1 promoter (rat SHP-1 promoter)","reporter activity, human SHP-1 promoter (human SHP-1 promoter)",SHP-1 expression in liver RNA versus vehicle-treated rats (SHP-1 expression [3]),CYP7A expression levels versus vehicle treated rats (CYP7A expression [4]),SHP-1 expression in rat hepatocytes (SHP-1 expression [5]),EC50 (rodent FXR) [nM]
"C[C@H](CCC(=O)O)[C@H]1CC[C@H]2[C@@H]3[C@H](O)C[C@@H]4C[C@H](O)CC[C@]4(C)[C@H]3CC[C@]12C [chenodeoxycholic acid, reference compound]",much less potent than GW4064,repressed CYP7A expression at the same concentrations that were required for induction of SHP-1 expression,–,–,–,–,–,–
CC(C)c1onc(-c2c(Cl)cccc2Cl)c1COc1ccc(/C=C/c2cccc(C(=O)O)c2)c(Cl)c1 [GW4064],markedly increased SHP-1 expression in a dose-dependent manner,decrease CYP7A expression in a dose dependent fashion; also recorded: repressed CYP7A expression at the same concentrations that were required for induction of SHP-1 expression,marked induction of reporter activity,marked induction of reporter activity,six-fold increase,decrease in CYP7A expression levels,markedly increased SHP-1 expression in a dose-dependent manner,80
